What is called IC50 is the concentration that inhibits the measured activity by half.

One data set deals with XP30RO cells (XP-V). Description: Cell survival assay, crystal violet, with or without UV.
For data set [1], the target named is T1, Human pol κ (residues 19–526) (Homo sapiens, UniProt Q9UBT6).
T1 construct: Human pol κ (residues 19–526) was purified as previously reported; made in house
T1 sequence (Q9UBT6 19-526): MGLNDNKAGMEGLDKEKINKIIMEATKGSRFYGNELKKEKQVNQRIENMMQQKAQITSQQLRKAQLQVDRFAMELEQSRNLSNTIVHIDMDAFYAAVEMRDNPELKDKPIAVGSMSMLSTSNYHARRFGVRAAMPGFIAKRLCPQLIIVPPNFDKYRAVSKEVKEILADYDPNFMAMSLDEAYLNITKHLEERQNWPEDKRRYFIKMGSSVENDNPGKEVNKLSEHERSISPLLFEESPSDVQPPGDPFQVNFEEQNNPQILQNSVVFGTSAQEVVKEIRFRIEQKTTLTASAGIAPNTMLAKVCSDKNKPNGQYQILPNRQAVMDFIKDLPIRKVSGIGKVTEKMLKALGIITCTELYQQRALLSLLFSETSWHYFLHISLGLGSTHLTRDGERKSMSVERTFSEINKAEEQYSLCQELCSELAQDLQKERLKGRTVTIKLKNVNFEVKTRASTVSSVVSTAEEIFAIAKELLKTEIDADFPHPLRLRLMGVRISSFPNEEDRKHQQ
Description: qHTS fluorescence-based DNA strand displacement assay. Type of data set: biochemical. Particulars: fluorescence strand displacement, 10 nM pol κ, 50 nM substrate, 100 µM dTTP; read-out: qHTS: IC50. The procedure: The substrate used in qHTS was made by the annealing of unlabeled oligodeoxynucleotide primer (5′-TCACCCTCGTACGACTC-3′) and TAMRA-labeled reporter strand (5′-TTTTTTTTTTGC-6-TAMRA-3′) to oligodeoxynucleotide template labeled with BHQ-2 (5′-BHQ-2-[…]-3′) as originally described by Dorjsuren et al.. The annealing mixture of unlabeled primer, TAMRA-labeled reporter, and BHQ-2-labeled template in buffer containing 50 mM Tris-HCl, pH 8.0, 100 mM NaCl, and 5 mM MgCl2 was heated at 95°C for 5 min and allowed to cool gradually to room temperature. The substrate was then stored at −20°C as 50 µM stock.
qHTS was performed in 50 mM Tris-HCI, pH 8.0, 40 mM NaCl, 1 mM MgCl2, 0.01% Tween-20, 2 mM DTT, and 100 µM dTTP. 3 µL of reagents (buffer as negative control and pol κ in the remaining plate at 10 nM final concentration) were dispensed by Flying Reagent Dispenser™ (FRD) (Beckman Coulter, Inc., Fullerton, CA) into a 1,536-well plate. Compounds were delivered as 23 nL in DMSO solution via pintool transfer; vehicle-only control consisted of 23 nL DMSO. The plate was incubated for 15 min at room temperature, and then 1 µL of substrate (50 nM final concentration) was added to initiate the reaction. The plate was immediately transferred into ViewLux reader for kinetic fluorescence data collection.
To lay the foundation for the methodologies to discover and characterize inhibitors of pol κ, we used a fluorescent reporter strand displacement assay (Figure 1 and [27]). The library of bioactive small molecules was tested as seven-point dilution series, with the final concentrations ranging from 2.9 nM to 57 µM.
For orientation: Quantitative high-throughput screening tests each substance at several concentrations.

A further data set concerns the target T2, Human pol κ (Homo sapiens, UniProt Q9UBT6).
T2 construct: Human pol κ (residues 19–526) was purified as previously reported; made in house
T2 sequence (Q9UBT6 19-526): T1 sequence (Q9UBT6 19-526)
Description: Radioactive gel-based primer extension assay on non-damaged DNA, pol κ. It counts as biochemical. Particulars: primer extension, non-damaged DNA, 0.25 nM pol κ; average ± standard error, three experiments; read-out: gel: non-damaged: IC50. As for the experimental part: The reactions with pol κ, pol η, and pol ι were carried out in the buffers containing 25 mM Tris-HCl, pH 7.5, 8 mM MgCl2, 10% glycerol, 100 µg/mL bovine serum albumin, and 5 mM DTT. Buffers for pol δ reactions contained 40 mM Hepes-KOH, pH 6.8, 10% glycerol, 200 µg/mL bovine serum albumin, 1 mM DTT, and 8 mM MgCl2. Final concentration of pol κ, pol η, pol ι, or pol δ in the reaction was 0.25 nM, 1 nM, 2.5 nM, or 4 nM, respectively. In this assay, a polymerase was preincubated with the compound for 15 min at room temperature. Primer extensions were then initiated by the addition of DNA substrate at final concentration of 5 nM and carried out for 30 min at room temperature in the presence of 100 µM dCTP and dGTP. The reactions were terminated by the addition of an equal volume of a dye solution containing 95% (v/v) formamide, 10 mM EDTA, 0.03% (w/v) xylene cyanol, and 0.03% (w/v) bromphenol blue. Reaction products were separated through a 15% acrylamide gel containing 8 M urea and visualized with a PhosphorImager screen. The ratio of extended primer to the total amount of primer was measured using ImageQuant 5.2 software to calculate the percentage of primer extended. IC50 values were determined by fitting the data to variable slope four-parameter equations using GraphPad Prism 5.

Description for XP30RO cells (XP-V): Cell survival assays were carried out using crystal violet assays and CellTiter-Glo Luminescent Cell Viability Assays. In crystal violet assays, XP30RO cells were plated into clear 96-well plates at a density of 8000 cells/mL and incubated overnight at 37°C, 5% CO2. The cells were treated with (1) inhibitor alone for 6 h or (2) UV alone or (3) inhibitor alone for 6 h followed by UV irradiation. After 2 days, cells were fixed with 4% paraformaldehyde and stained with 0.5% crystal violet dye. The dye was dissolved in 10% acetic acid and absorbance measurement was taken at OD595 nm with Infinite® M200 plate reader (Tecan, Durham, NC). For the CellTiter-Glo Luminescent Cell Viability Assays, the same procedures as crystal violet assays were used except that white/clear bottom 96-well plates were used and cell viability was measured following manufacturer's recommendations.
XP30RO cells were treated with 24 µM of candesartan cilexetil alone, UV alone at 1.5 J/m^2, 4.5 J/m^2, or 7.5 J/m^2, or in combination. Percent survival was calculated by normalizing the data using the cell survival of untreated cells. The data were obtained from three independent experiments.

Consider `CCOc1nc2cccc(C(=O)OC(C)OC(=O)OC3CCCCC3)c2n1Cc1ccc(-c2ccccc2-c2nnn[nH]2)cc1` (stereo not shown) [candesartan cilexetil, Candesartan cilexetil], for which the “Cell survival with compound alone” value in the data set on XP30RO cells (XP-V) (24 µM, no UV) was “cell survival was not altered”. Also, the “Effect on UV-induced cytotoxicity” value with XP30RO cells (XP-V) (crystal violet, inhibitor 6 h then UV 1.5, 4.5 or 7.5 J/m^2, candesartan cilexetil 24 µM) is listed as “potentiated the cytotoxicity of UV at higher UV doses”. Moreover, the IC50 in data set [1] amounted to 32 µM; at Human pol κ, 9.2 ± 0.5 µM.

Values taken from paper PMC3466269, “A Comprehensive Strategy to Discover Inhibitors of the Translesion Synthesis DNA Polymerase κ” (PLoS ONE, 2012).
